According to patent US20230372221A1, “USE OF THIOPYRIDINONE COMPOUNDS FOR PREVENTING THE FORMATION OF CUTANEOUS BLACKHEADS” (L'OREAL, priority 2020, published 2023):

Tested on: oxidation of the L-DOPA under the action of the bacterial extract (intracellular extract of Cutibacterium acnes CIP 53.117)
Experiment: In vitro evaluation of the ability to inhibit the development of the colour (absorbance at 475 nm of L-DOPA + Cutibacterium acnes extract)
Assay type: biochemical
Conditions: for inhibiting the development of the colour (result in words): compared with Reference (absence of treatment); for optical density at 475 nm: 32° C.; for % inhib (percentage of inhibition of the formation of the coloured product): from initial rate of oxidation between 10 and 40 minutes vs reference composition
Description: This method is based on the measurement of absorbance, over time, carried out directly on a composition formed of a mixture of intracellular extract of bacteria of Cutibacterium acnes type, of 3,4-dihydroxy-L-phenylalanine (L-DOPA) and of a test compound. The measurements are compared with those carried out for a mixture of an intracellular extract of bacteria of Cutibacterium acnes type and of 3,4-dihydroxy-L-phenylalanine (L-DOPA), in the absence of test compound (reference). The method is adapted from a method for the enzymatic assay of the tyrosinase activity (Behbahani et al., Microchemical Journal (1993), 47, 251), which is based on the absorbance properties at 475 nm of a coloured intermediate of the pathway for the biosynthesis of melanin starting from L-DOPA, namely dopachrome, a product of the oxidation of L-DOPA. An intracellular extract of bacteria of Cutibacterium acnes CIP 53.117 type stored at 4° C. in the lyophilized form is suspended in 1×PBS (supplied by Gibco BRL Life Technologies) at a concentration of 6 mg/ml. A solution of L-DOPA at a concentration of 0.5 mg/ml is prepared by bringing together L-DOPA (supplied by Sigma-Aldrich) and milliQ water, so as to have an L-DOPA concentration of 1 mg/ml, then diluting with 1×PBS (Dulbecco's Phosphate Buffered Saline, supplied by Gibco BRL Life Technologies). The mixture of 50 μl of these two solutions and of 100 μl of 1×PBS (Dulbecco's Phosphate Buffered Saline, supplied by Gibco BRL Life Technologies) results in a composition with a total volume of 200 μl containing L-DOPA (at a concentration of 125 μg/ml) and Cutibacterium acnes extract (at a concentration of 1.5 mg/ml). The test compositions and the reference composition are introduced separately into wells of a 96-well microplate suitable for reading in visible spectrophotometry, and placed at a temperature of 32° C. The formation of a coloured product is monitored over time by spectrophotometry. To do this, the absorbance, or optical density (O.D.), is measured at 475 nm from the time 0 to the time 2 hours by means of a Spectra Max M5e reader and the Spectra Max software (the time 0 corresponds to the introduction of the composition into the wells). The ability to inhibit the development of the colour of a given compound was assessed by comparing the absorbance measurements obtained for the test compositions with those obtained for the reference composition. More specifically, the inhibitory effect of the test compound was evaluated by comparing the initial rate of oxidation of the L-DOPA under the action of the bacterial extract at 475 nm for the test composition with that of the reference composition in order to obtain a corresponding percentage of inhibition. In practice, the initial rate (Vi) of the oxidation reaction is calculated from the linear part of the curve of the graph of the absorbance values. As this part lies between 10 and 40 minutes (see the graph in FIG. 1), the initial rate of the oxidation reaction is determined using the following relationship: [formula] The percentage of inhibition (% inhib) of a given compound with regard to the formation of the coloured product is subsequently obtained using the values of the initial rate of the oxidation reaction for the reference composition (Viref) and for the test composition ([…]) according to the following relationship: [formula] Within the meaning of the invention, a compound is regarded as having an inhibitory effect if the % inhib value is at least 15%.

[1] = test compound 12.5 μM, duration 0 minutes
[2] = test compound 12.5 μM, duration 10 minutes
[3] = test compound 12.5 μM, duration 20 minutes
[4] = test compound 12.5 μM, duration 30 minutes
[5] = test compound 12.5 μM, duration 40 minutes
[6] = test compound 12.5 μM, duration 60 minutes
[7] = test compound 12.5 μM, duration 80 minutes
[8] = test compound 12.5 μM, duration 100 minutes
[9] = test compound 12.5 μM, duration 120 minutes
[10] = test compound 25 μM, duration 0 minutes
[11] = test compound 25 μM, duration 10 minutes
[12] = test compound 25 μM, duration 20 minutes
[13] = test compound 25 μM, duration 30 minutes
[14] = test compound 25 μM, duration 40 minutes
[15] = test compound 25 μM, duration 60 minutes
[16] = test compound 25 μM, duration 80 minutes
[17] = test compound 25 μM, duration 100 minutes
[18] = test compound 25 μM, duration 120 minutes
[19] = test compound 50 μM, duration 0 minutes
[20] = test compound 50 μM, duration 10 minutes
[21] = test compound 50 μM, duration 20 minutes
[22] = test compound 50 μM, duration 30 minutes
[23] = test compound 50 μM, duration 40 minutes
[24] = test compound 50 μM, duration 60 minutes
[25] = test compound 50 μM, duration 80 minutes
[26] = test compound 50 μM, duration 100 minutes
[27] = test compound 50 μM, duration 120 minutes
[28] = test compound 100 μM, duration 0 minutes
[29] = test compound 100 μM, duration 10 minutes
[30] = test compound 100 μM, duration 20 minutes
[31] = test compound 100 μM, duration 30 minutes
[32] = test compound 100 μM, duration 40 minutes
[33] = test compound 100 μM, duration 60 minutes
[34] = test compound 100 μM, duration 80 minutes
[35] = test compound 100 μM, duration 100 minutes
[36] = test compound 100 μM, duration 120 minutes

## CCOC(=O)CNC(=O)c1ccc[nH]c1=S [Compound 5, Ethyl N-[(2-thioxo-1,2-dihydropyridin-3-yl)carbonyl]glycinate]
  inhibiting the development of the colour (result in words): very effective
[1]
  optical density at 475 nm: 0.0531
[2]
  optical density at 475 nm: 0.0535
[3]
  optical density at 475 nm: 0.0550
[4]
  optical density at 475 nm: 0.0559
[5]
  optical density at 475 nm: 0.0572
[6]
  optical density at 475 nm: 0.0601
[7]
  optical density at 475 nm: 0.0636
[8]
  optical density at 475 nm: 0.0659
[9]
  optical density at 475 nm: 0.0674
Test compound 12.5 μM
  % inhib (percentage of inhibition of the formation of the coloured product): 57%
[10]
  optical density at 475 nm: 0.0559
[11]
  optical density at 475 nm: 0.0567
[12]
  optical density at 475 nm: 0.0572
[13]
  optical density at 475 nm: 0.0575
[14]
  optical density at 475 nm: 0.0578
[15]
  optical density at 475 nm: 0.0588
[16]
  optical density at 475 nm: 0.0602
[17]
  optical density at 475 nm: 0.0627
[18]
  optical density at 475 nm: 0.0651
Test compound 25 μM
  % inhib (percentage of inhibition of the formation of the coloured product): 87%
[19]
  optical density at 475 nm: 0.0539
[20]
  optical density at 475 nm: 0.0554
[21]
  optical density at 475 nm: 0.0557
[22]
  optical density at 475 nm: 0.0560
[23]
  optical density at 475 nm: 0.0565
[24]
  optical density at 475 nm: 0.0573
[25]
  optical density at 475 nm: 0.0579
[26]
  optical density at 475 nm: 0.0585
[27]
  optical density at 475 nm: 0.0593
Test compound 50 μM
  % inhib (percentage of inhibition of the formation of the coloured product): 87%
[28]
  optical density at 475 nm: 0.0532
[29]
  optical density at 475 nm: 0.0534
[30]
  optical density at 475 nm: 0.0548
[31]
  optical density at 475 nm: 0.0550
[32]
  optical density at 475 nm: 0.0550
[33]
  optical density at 475 nm: 0.0555
[34]
  optical density at 475 nm: 0.0557
[35]
  optical density at 475 nm: 0.0561
[36]
  optical density at 475 nm: 0.0563
Test compound 100 μM
  % inhib (percentage of inhibition of the formation of the coloured product): 82%

## O=c1cc(CO)occ1O [Kojic acid, kojic acid, reference compound]
  inhibiting the development of the colour (result in words): does not make it possible to inhibit the development of the colour
Listed as kojic acid
  inhibiting the development of the colour (result in words): without effect
[28]
  optical density at 475 nm: 0.0599
[29]
  optical density at 475 nm: 0.0614
[30]
  optical density at 475 nm: 0.0646
[31]
  optical density at 475 nm: 0.0698
[32]
  optical density at 475 nm: 0.0741
[33]
  optical density at 475 nm: 0.0804
[34]
  optical density at 475 nm: 0.0837
[35]
  optical density at 475 nm: 0.0845
[36]
  optical density at 475 nm: 0.0843
Test compound 100 μM
  % inhib (percentage of inhibition of the formation of the coloured product): −1%

## CN(CC(=O)O)C(=O)c1ccc[nH]c1=S [Compound 3, N-methyl-N-[(2-thioxo-1,2-dihydropyridin-3-yl)carbonyl]glycine]
  inhibiting the development of the colour (result in words): very effective
[1]
  optical density at 475 nm: 0.0555
[2]
  optical density at 475 nm: 0.0565
[3]
  optical density at 475 nm: 0.0575
[4]
  optical density at 475 nm: 0.0595
[5]
  optical density at 475 nm: 0.0613
[6]
  optical density at 475 nm: 0.0647
[7]
  optical density at 475 nm: 0.0677
[8]
  optical density at 475 nm: 0.0686
[9]
  optical density at 475 nm: 0.0694
Test compound 12.5 μM
  % inhib (percentage of inhibition of the formation of the coloured product): 39%
[10]
  optical density at 475 nm: 0.0549
[11]
  optical density at 475 nm: 0.0569
[12]
  optical density at 475 nm: 0.0578
[13]
  optical density at 475 nm: 0.0594
[14]
  optical density at 475 nm: 0.0607
[15]
  optical density at 475 nm: 0.0630
[16]
  optical density at 475 nm: 0.0651
[17]
  optical density at 475 nm: 0.0664
[18]
  optical density at 475 nm: 0.0677
Test compound 25 μM
  % inhib (percentage of inhibition of the formation of the coloured product): 51%
[19]
  optical density at 475 nm: 0.0539
[20]
  optical density at 475 nm: 0.0561
[21]
  optical density at 475 nm: 0.0575
[22]
  optical density at 475 nm: 0.0587
[23]
  optical density at 475 nm: 0.0594
[24]
  optical density at 475 nm: 0.0609
[25]
  optical density at 475 nm: 0.0623
[26]
  optical density at 475 nm: 0.0632
[27]
  optical density at 475 nm: 0.0639
Test compound 50 μM
  % inhib (percentage of inhibition of the formation of the coloured product): 58%
[28]
  optical density at 475 nm: 0.0579
[29]
  optical density at 475 nm: 0.0606
[30]
  optical density at 475 nm: 0.0612
[31]
  optical density at 475 nm: 0.0619
[32]
  optical density at 475 nm: 0.0623
[33]
  optical density at 475 nm: 0.0618
[34]
  optical density at 475 nm: 0.0606
[35]
  optical density at 475 nm: 0.0605
[36]
  optical density at 475 nm: 0.0609
Test compound 100 μM
  % inhib (percentage of inhibition of the formation of the coloured product): 78%

## CCCCc1ccc(O)cc1O [Lucinol, 4-butylresorcinol, reference compound]
  inhibiting the development of the colour (result in words): does not make it possible to inhibit the development of the colour
Listed as lucinol
  inhibiting the development of the colour (result in words): without effect
[28]
  optical density at 475 nm: 0.0552
[29]
  optical density at 475 nm: 0.0563
[30]
  optical density at 475 nm: 0.0591
[31]
  optical density at 475 nm: 0.0629
[32]
  optical density at 475 nm: 0.0671
[33]
  optical density at 475 nm: 0.0730
[34]
  optical density at 475 nm: 0.0758
[35]
  optical density at 475 nm: 0.0768
[36]
  optical density at 475 nm: 0.0765
Test compound 100 μM
  % inhib (percentage of inhibition of the formation of the coloured product): 0%
